Consider 1 molecule from publication PMC10889512, “Pyrimidine Schiff Bases: Synthesis, Structural Characterization and Recent Studies on Biological Activities” (International Journal of Molecular Sciences, 2024).

One assay has as its system A172 cells. Briefly: Flow cytometry annexin V/PI staining, cell death pathway, A172. The settings on record: A172, at IC50, 6, 18 and 24 h. Type of assay: cell-based, human. How it is done: To confirm the cell death pathway, another approach to flow cytometry was used. […] Annexin V is a specific PS-binding protein, and thus it is used to detect apoptotic cells. Very few events could be observed in the first and the second quadrant, which represent apoptotic cells. Most events occurred in the third and the fourth quadrant, where unstained and necrotic cells were located. The 24 h measurements after both flow cytometry approaches were consistent with each other. […] Two approaches for flow cytometry were used—FDA/PI staining to determine cell viability and annexin V/PI staining for cell death pathway determination. For cell death pathway determination, cells were plated in 6-well plates at a density of 3 × 10^5 cells/well. […] After 6, 18, and 24 h incubation, adhered and floating cells were harvested, centrifuged at 1600 rpm, and washed with PBS. Next, the cells were washed with 1× annexin-binding buffer, and after centrifugation, cells from each test set were suspended in 100 µL of 1× annexin-binding buffer. To each tube, 5 µL of Alexa Fluor 488-annexin V stain was added, and the cells were incubated in the dark. After 15 min incubation, the cells were centrifuged at 1600 rpm to remove the dye, then suspended in 1 mL of 1× binding buffer and kept on ice. Prior to analysis, cells were stained for 2 min with 1 µM PI. […]
(In flow cytometry, cells or beads pass a laser one at a time.)

The test system of a further assay is A172 cell line. Briefly: Comet assay (single-cell gel electrophoresis), A172. The class given is cell-based, human. As for the experimental part: Single-cell gel electrophoresis was performed to assess the potential genotoxic effect on AGS and A172 after incubation with compound 4b at IC50. This method is based on the ability of damaged DNA to migrate out of the cell during electrophoresis. After DNA staining (Hoechst 33342), the characteristic “comet tail” could be observed under the fluorescence microscope. The damages in 100 randomly selected cells were visually classified into five groups according to the length of the “comet tail”. Group 0 consisted of cells without damaged DNA, while group 4 contained cells with maximally long tails. Based on this, a group damage index (DI) was calculated. The genotoxic effect was found in both examined cell lines. In the case of the A172 cell line, the DNA degradation level seemed to be independent of the incubation time with compound 4b (DNA damage index (DDI) between 77 and 85 over three incubation periods), whereas for AGS cells, genotoxicity was induced in a time-dependent manner (DDI 63, 107, and 111 after 24, 48, and 72 h, respectively).
The comet assay was performed according to the method of Singh et al. with slight modifications. Slides sterilized in 70% ethanol microscope were covered with thin layer of 1% normal melting agarose and left to solidify in a low-humidity environment. Cells were plated in 12-well plates at a density of 1 × 10^5 cells/well and incubated for 24 h in a cell incubator. Next, compound 4b was added in concentrations equal to the IC50 values obtained after the neutral red uptake assay. After 24, 48, and 72 h incubation, cells were harvested, centrifuged, and resuspended in PBS. […] A total of 100 randomly selected cells were scored, and captured comets were classified based on the comet’s tail length as follows: class 0 contained comets with no damaged DNA; class 1, those with low damage; class 2, those with medium damage; class 3, those with high damage; and class 4, those with very high damage. The damage index (DI) was calculated as follows: DI=0×n0+1×n1+2×n2+3×n3+4×n4, n0,1,2,3,4 —the amount of comets in each class.

The test system of a further assay is S. aureus 43300. Briefly: Antimicrobial activity assay, microdilution. Type of assay: cell-based, Staphylococcus aureus. The conditions noted are these: concentration range from 0.5 µg/mL to 256 µg/mL. As for the experimental part: (§1) In vitro antimicrobial and antifungal activity was screened using microdilution and modified Richard’s medium. The assay was performed for compounds 4a, 4b, 4c, and 4d with seven reference microbial strains from ATTC (E. coli 25922, S. aureus 43300, K. pneumoniae 700603, A. baumannii 19606, P. aeruginosa 27853, E. faecalis 29212, and C. albicans 10231).
(§2) Seven reference strains from the ATCC collection (Escherichia coli 25922, Staphylococcus aureus 43300, Klebsiella pneumoniae 13883, Acinetobacter baumannii 19606, Pseudomonas aeruginosa 27853, Enterococcus faecalis 29212, and Candida albicans 10231) were used. The assay was performed according to a modified version of Richard et al.’s protocol and ISO standards 20776-1:2019 and 16256:2021 [78, 79]. Microdilution with spectrophotometric measurement was used to calculate MIC50 (minimal inhibitory concentration which decreased the microorganisms’ viability to 50%) values. Briefly, compounds were prepared 100× concentrated in DMSO, and during the whole experiment, they were diluted to 1× with TSB. Serial dilutions of tested compounds were made directly on plates at a concentration range of 0.5 to 256 µg/mL. Microorganisms were incubated for 24 h at 37 °C (bacteria) or 25 °C (yeast) on Petri dishes with TSA. The bacteria/yeast suspensions were prepared at a density 5 × 10^5 CFU/mL (for bacteria) or 0.5–2.5 × 10^5 CFU/mL (for yeast) with TSB. Also, appropriate controls were contained in the experiment: the positive control consisted of a specific strain in TSB, and the negative control was TSB alone. To ensure that used strains were not modified and were still responding to antibacterial/antifungal compounds established by EUCAST, additional tests were conducted with levofloxacin, gentamicin, and amphotericin B. Microplates were incubated on a shaker for 24 h at 37 ± 1 °C or 25 ± 1 °C for the bacteria and yeast strains, respectively. After the incubation, spectrophotometric measurement was performed at 580 nm. MIC50 was calculated by comparing the results obtained for experimental sets with positive controls. Next, 50 µL aliquots of 1% (m/v) TTC solution were added to each well. The plates were incubated on the shaker for 24 h at 37/25 °C. In living microbial cells, colourless TTC is converted into red formazan crystals, which allows for visual observation and MBC/MFC (minimal bactericidal/fungicidal concentration) value assessment.
For orientation: Broth dilution looks for growth in wells or tubes with falling amounts of substance.

The next assay relates to C. albicans 10231. Briefly: Antifungal activity assay, microdilution. The class given is cell-based, Candida albicans. The conditions noted are these: concentration range from 0.5 µg/mL to 256 µg/mL. How it is done: as §1, §2

On to `Cc1nc(-c2ccccc2)nc(Nc2ccc(F)cc2)c1C=Nc1cccc(Cl)c1` [compound 4b, 5-{[(3-chlorophenyl)imino]methyl}-N-(4-fluorophenyl)-6-methyl-2-phenylpyrimidin-4-amine], for which, in the assay on A172 cells, the cell death pathway result is “irreversible cell injury and necrosis”. Also, the DNA damage index in the assay on A172 cell line (A172, at IC50, 24 h) came to 77 arbitrary units; in the assay on A172 cell line (A172, at IC50, 48 h), 85 arbitrary units; with A172 cell line (A172, at IC50, 72 h), 78 arbitrary units. Further, the “MIC and MBC/MFC activity” value in the assay on S. aureus 43300 and in the assay with C. albicans 10231 was “Neither MIC nor MBC/MFC activity was observed” in each case.
